Tests used:
delirium [1] = details: five patients diagnosed as having delirium; cited from earlier work
delirium [2] = details: of 10 patients over 65 years of age who developed delirium with heart failure etc.; cited from earlier work
plasma melatonin = assay: Effect on nocturnal plasma melatonin concentration in rats; format: in vivo, rat; details: Wistar rats, 3 mg/kg orally once per day for 7 days, vs vehicle, FIG. 5
Method: Effect of Compound A on Nocturnal Plasma Melatonin Concentration in Rats
9-Week-old male Wistar rats (CLEA Japan Inc.) were used for this study. All rats (n=12) were bred in groups of 2 to 5 animals per cage in a light control room (lights on at 7:00 and 12 hour light/dark cycle) prior to the test and made to get used to it for about two weeks. Food and tap water were freely provided.
A solvent or compound A was orally administered to 11-week-old rats at a dose of 3 mg/kg once per day at 17:00-17:15 for 7 days. After the final treatment, blood samples (500 μL) were successively collected from the tail artery of each rat at 20:00 (ZT (Zeitgeber Time)) 13), 22:00 (ZT15), 0:00 (ZT17), 2:00 (ZT19), 4:00 (ZT21), 6:00 (ZT23) and 8:00 (ZT25) in EDTA-2Na-containing tube (Lot No. MP0831, CAPIJECT (registered trade mark), Terumo Corporation, Japan). The blood samples were centrifuged at 15,000 rpm, 4° C. for 5 min and the supernatant (200 μL) was preserved at -80° C. until they were treated for radioimmunoassay. Melatonin concentration was measured using a kit (Lot No. 2428.10, BUHLMANN Laboratories AG, Switzerland) commercially available from T.N. TECHNOS., Limited, Japan.
The data are shown in average ±SEM (6 rats in each group). The statistical significance between samples and in samples was determined by repeated measurement ANOVA in which P<0.05 was significant.

Clock mutant mouse = assay: Effect on phase delay in Clock mutant mouse (rotating basket exercise); format: in vivo; details: for % in the initial dark period (rotating basket exercise) / % in the initial dark period (rotating basket exercise), recovery of decrease: vs solvent; for % in the initial dark period (rotating basket exercise): FIG. 3; for exercise starting time: vs average of 7-day preliminary treatment period; for % in the initial dark period (rotating basket exercise), recovery of decrease: FIG. 1
Method: Effect on Phase Delay of Compound A in Clock Mutant Mouse
Male Clock mutant mouse (Trans Genic Inc.) and male ICR mouse (CLEA Japan Inc.) were used as a wild-type control in this study. All animals were bred in groups of 4 or 5 animals per cage in a light control room (lights on at 7:00 and 12 hour light/dark cycle) prior to behavioral test. Food and tap water were freely provided.
21-Week-old and 23-week-old mice were used in experiment 1 and experiment 2 (in each experiment, Clock mutant mouse; n=36, ICR mouse; n=12). In both experiments, the animals were placed in a test room and individually bred under 10 hr/14 hr light/dark cycle (lights on at 7:00 and lights off at 17:00) in a cage provided with a rotating basket (diameter 14.5 cm). In addition, 15 Clock mutant mice and 10 ICR mice were prepared as extra animals in the same room in each experiment. Data on the rotating basket exercise were collected every minute and analyzed using Clocklab (registered trade mark) (Actimetrics, Evanston, Ill., USA).
The animals were first acclimated to a new light/dark cycle for about 2 weeks. In the acclimation period, a total number of exercises in 24 hours (total number) for each day, and the percentage of the number of exercise in the light period (7:00 to 17:00) (percentage in the light period) in the total number were measured.
In the preliminary treatment period, the mice were orally administered with a solvent (0.5% methylcellulose solution) at 15:45-16:19 once daily for 2 weeks for acclimation to administration prior to the drug treatment period. […] The solvent or compound A was orally administered to the animals at 15:45 to 16:13 once a day for 7 days.
In the drug treatment period, % in the initial dark period was measured, and the exercise start time was measured using same as an additional index in the Clock mutant mice. Using the aforementioned parameter, the minimum effective dose of compound A in these experiments (experiments 1 and 2) was determined.
The data are shown in average ±SEM. A statistical significance between ICR mouse and Clock mutant mouse was determined by Student's t-test (experiment 1) or Aspin-Welch test (experiment 2) in which P≤0.05 was significant. For analysis of multiple administration of compound A, the statistical significance was determined by one-sided Williams' 20 test (experiments 1 and 2) in which P≤0.025 was significant.

| SMILES | recovery from delirium symptoms (delirium [1]) | patients in whom delirium was improved (delirium [2]) [patients] | level of melatonin concentration (plasma) (plasma melatonin) | start of plasma melatonin (plasma melatonin) | % in the initial dark period (rotating basket exercise) (Clock mutant mouse; 0.003 mg/kg orally once a day for 7 days) | % in the initial dark period (rotating basket exercise) (Clock mutant mouse; 0.03 mg/kg orally once a day for 7 days) | exercise starting time (Clock mutant mouse; 0.03 mg/kg repetitive oral administration, FIG. 4) | % in the initial dark period (rotating basket exercise), recovery of decrease (Clock mutant mouse; 0.3 mg/kg orally once a day for 7 days) | exercise starting time (Clock mutant mouse; 0.3 mg/kg repetitive oral administration, FIG. 2) | % in the initial dark period (rotating basket exercise), recovery of decrease (Clock mutant mouse; 1 mg/kg orally once a day for 7 days) | exercise starting time (Clock mutant mouse; 1 mg/kg repetitive oral administration, FIG. 2) | minimum effective dose (phase retardation) (Clock mutant mouse; oral, once a day for 7 days) [mg/kg] |
| --- | --- | --- | --- | --- | --- | --- | --- | --- | --- | --- | --- | --- |
| CCC(=O)NCC[C@@H]1CCc2ccc3c(c21)CCO3 [ramelteon, (S)—N-[2-(1,6,7,8-tetrahydro-2H-indeno[5,4-b]furan-8-yl)ethyl]propionamide] | recovered from delirium symptoms the next day | 6 |  |  |  |  |  |  |  |  |  |  |
| CC(=O)NCC[C@@H]1CCc2ccc3nc(C)oc3c21 [compound A, (S)—N-[2-(2-methyl-7,8-dihydro-6H-indeno[5,4-d][1,3]oxazol-8-yl)ethyl]acetamide] |  |  | significantly increased | advanced | did not have a significant effect | did not have a significant effect | significantly advanced | improvement effect was significant | significantly advanced | improvement effect was significant | significantly advanced | 0.03 |

Reference: patent US11173147B2, “Prophylactic or therapeutic agent for delirium” (priority 2016, dated 2021)
